Data from patent US20230218632A1, “CYCLIC SULFONAMIDE DERIVATIVES AS TRAP1 MODULATORS AND USES THEREOF” (Amathus Therapeutics, Inc., priority 2020, published 2023).

Target: T1, TRAP1 enzyme (Homo sapiens, UniProt Q12931)
T1 sequence (Q12931 60-704): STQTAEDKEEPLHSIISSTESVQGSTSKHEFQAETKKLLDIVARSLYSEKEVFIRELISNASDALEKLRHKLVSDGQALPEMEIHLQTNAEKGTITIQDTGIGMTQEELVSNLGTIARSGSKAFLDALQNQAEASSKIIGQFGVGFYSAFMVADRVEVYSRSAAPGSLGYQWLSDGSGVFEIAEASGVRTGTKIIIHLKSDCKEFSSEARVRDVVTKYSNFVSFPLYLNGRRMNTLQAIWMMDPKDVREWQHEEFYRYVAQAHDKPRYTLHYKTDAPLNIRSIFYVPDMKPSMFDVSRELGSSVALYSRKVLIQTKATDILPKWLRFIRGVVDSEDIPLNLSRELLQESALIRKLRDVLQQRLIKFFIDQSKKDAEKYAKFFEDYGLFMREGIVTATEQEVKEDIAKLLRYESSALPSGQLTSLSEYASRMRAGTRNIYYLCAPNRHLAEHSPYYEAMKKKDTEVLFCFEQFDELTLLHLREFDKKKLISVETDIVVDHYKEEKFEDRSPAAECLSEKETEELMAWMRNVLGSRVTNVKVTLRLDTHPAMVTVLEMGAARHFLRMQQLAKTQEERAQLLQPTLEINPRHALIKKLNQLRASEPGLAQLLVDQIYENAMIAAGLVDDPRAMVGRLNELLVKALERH
Assay: ADP Glo assay (ATPase activity of TRAP1)
Assay type: biochemical
Details: for EC50: 150 nM Trap1, 20 µM ATP, concentration for half maximal activation, read-out: ADP GLO DRC: GeoMean EC50; for Emax: read-out: ADP GLO DRC: Mean Emax
Method: Potency of test compounds to modulate the ATPase activity of TRAP1 enzyme was evaluated using ADP Glo assay. The assay is based on quantification of the ADP generated from ATP in the ATPase reaction. The assay is performed in two steps; first, after the ATPase reaction, an equal volume of ADP-Glo™ Reagent is added to terminate the ATPase reaction and deplete the remaining ATP. Second, the Kinase Detection Reagent is added to simultaneously convert ADP to ATP and allow the newly synthesized ATP to be measured using a luciferase/luciferin reaction.
All the assays were carried out in a 384-well Proxiplate. The buffer used was 25 mM Pipes pH-7.5, 40 mM KCl, 0.05 mM MgCl2, 0.025 % BSA, 0.316 mM EGTA, 0.003% Empigen, 0.01% Igepal. 150 nM Trap1 enzyme was incubated with various concentrations of the test compound (0.79 µM - 100 µM) at 37° C. for 30 mins (except in blank wells). 20 µM ATP was added to each well to start the reaction. The plate was spun for 1 min at 1200 rpm and then incubated at 37° C. for 60 mins. 5 µl of ADP Glo reagent was added to all the wells and spun the plate for 1 min at 1200 rpm and kept it on a shaker at ambient temperature for 60 mins. 10 µl of kinase detection mix was added to all the wells and the plate was read for Luminescence at 495 nm. The amount of ADP released was estimated from ATP/ADP standard curve generated at the same experimental conditions. Emax (Maximal percent activation) and EC50 (concentration for half maximal activation ) were estimated by fitting the dose response data to a sigmoidal curve fitting equation using Graphpad Prism software V. 8.

Compound | EC50 [µM] | Emax (maximal percent activation) [%] | ADP GLO DRC: Mean Emax (maximal percent activation)
Cc1ncoc1C(=O)Nc1ccc2c(c1)S(=O)(=O)N(c1ccc(C(F)(F)F)cc1)CCO2 [Compound 1190, N-(1,1-Dioxido-2-(4-(Trifluoromethyl)Phenyl)-3,4-Dihydro-2H-benzo[b][1,4,5]Oxathiazepin-8-yl)-4-Methyloxazole-5-Carboxamide] | < 20 | 150 to 200 | 
Cc1ccncc1C(=O)Nc1ccc2c(c1)S(=O)(=O)N(c1ccc(Cl)cc1)CCO2 [Compound 1209, N-(2-(4-chlorophenyl)-1,1-Dioxido-3,4-Dihydro-2H-Benzo[b][1,4,5] Oxathiazepin-8-yl)-4-Methylnicotinamide] | 30 to 100 | 150 to 200 | 
Cc1ncoc1C(=O)Nc1ccc2c(c1)S(=O)(=O)N(c1ccc(Cl)cc1)CCO2 [Compound 1210, N-(2-(4-chlorophenyl)-1,1-Dioxido-3,4-Dihydro-2H-Benzo[b][1,4,5]Oxathiazepin-8-yl)-4-Methyloxazole-5-Carboxamide] | 30 to 100 | > 200 | 
Cc1ccncc1C(=O)Nc1ccc2c(c1)S(=O)(=O)N(c1ccc(C(F)(F)F)cc1)CCO2 [Compound 1212, N-(1,1-Dioxido-2-(4-(Trifluoromethyl)Phenyl)-3,4-Dihydro-2H-Benzo[b][1,4,5]Oxathiazepin-8-yl)-4-Methylnicotinamide] | 20 to 30 | 150 to 200 | 
Cc1nc(C)c(C(=O)Nc2ccc3c(c2)S(=O)(=O)N(c2ccc(C(F)(F)F)cc2)CCO3)o1 [Compound 1974, N-(1,1-Dioxido-2-(4-(Trifluoromethyl)Phenyl)-3,4-Dihydro-2H-Benzo[b][1,4,5]Oxathiazepin-8-yl)-2,4-Dimethyloxazole-5-Carboxamide] | 20 to 30 | 150 to 200 | 
Cc1ocnc1C(=O)Nc1ccc2c(c1)S(=O)(=O)N(c1ccc(C(F)(F)F)cc1)CCO2 [Compound 1975, N-(1,1-Dioxido-2-(4-(Trifluoromethyl)Phenyl)-3,4-Dihydro-2H-Benzo[b][1,4,5]Oxathiazepin-8-yl)-5-Methyloxazole-4-Carboxamide] | < 20 | 129 to 149 | 
O=C(Nc1ccc2c(c1)S(=O)(=O)N(c1ccc(C(F)(F)F)cc1)CCO2)c1cocn1 [Compound 1976, N-(1,1-Dioxido-2-(4-(Trifluoromethyl)Phenyl)-3,4-Dihydro-2H-Benzo[b][1,4,5]Oxathiazepin-8-yl)Oxazole-4-Carboxamide] | 30 to 100 | 150 to 200 | 
Cc1ncoc1C(=O)Nc1ccc2c(c1)S(=O)(=O)N(c1ccc(C(F)(F)F)cc1)CCCO2 [Compound 1989, N-(1,1-Dioxido-2-(4-(Trifluoromethyl) Phenyl)-2,3,4,5-Tetrahydrobenzo[b][1,4,5]Oxathiazocin-9-yl)-4-Methyloxazole-5-Carboxamide] | 30 to 100 | > 200 | 
Cc1nc(C(=O)Nc2ccc3c(c2)S(=O)(=O)N(c2ccc(C(F)(F)F)cc2)CCO3)co1 [Compound 1992, N-(1,1-Dioxido-2-(4-(trifluoromethyl)Phenyl)-3,4-Dihydro-2H-Benzo[b][1,4,5]Oxathiazepin-8-yl)-2-Methyloxazole-4-Carboxamide] | 20 to 30 | 150 to 200 | 
O=C(Nc1ccc2c(c1)S(=O)(=O)N(c1ccc(C(F)(F)F)cc1)CCO2)c1cnco1 [Compound 1994, n-(1,1-Dioxido-2-(4-(Trifluoromethyl) Phenyl)-3,4-Dihydro-2H-Benzo[b][1,4,5]Oxathiazepin-8-yl)Oxazole-5-Carboxamide] | 30 to 100 | > 200 | 
Cc1ncsc1C(=O)Nc1ccc2c(c1)S(=O)(=O)N(c1ccc(C(F)(F)F)cc1)CCO2 [Compound 2058, N-(1,1-Dioxido-2-(4-(Trifluoromethyl)Phenyl)-3,4-Dihydro-2H-Benzo[b][1,4,5]Oxathiazepin-8-yl)-4-Methylthiazole-5-Carboxamide] | < 20 | 150 to 200 | 
O=C(Nc1ccc2c(c1)S(=O)(=O)N(c1ccc(C(F)(F)F)cc1)CCO2)c1cnc[nH]1 [Compound 2075, N-(1,1-Dioxido-2-(4-(Trifluoromethyl) Phenyl)-3,4-Dihydro-2H-Benzo [b] [1,4,5] Oxathiazepin-8-yl)-1H-Imidazole-5-Carboxamide] | 20 to 30 | 150 to 200 | 
CC(C)c1ncsc1C(=O)Nc1ccc2c(c1)S(=O)(=O)N(c1ccc(C(F)(F)F)cc1)CCO2 [Compound 2080, N-(1,1-Dioxido-2-(4-(Trifluoromethyl)Phenyl)-3,4-Dihydro-2H-Benzo[b][1,4,5]Oxathiazepin-8-yl)-4-Isopropylthiazole-5-Carboxamide] | 20 to 30 | 129 to 149 | 
CC(C)c1scnc1C(=O)Nc1ccc2c(c1)S(=O)(=O)N(c1ccc(C(F)(F)F)cc1)CCO2 [Compound 2085, N-(1,1-Dioxido-2-(4-(Trifluoromethyl)phenyl)-3,4-Dihydro-2H-Benzo[b][1,4,5]Oxathiazepin-8-yl)-5-Isopropylthiazole-4-Carboxamide] | 30 to 100 | 150 to 200 | 
Cn1ccnc1C(=O)Nc1ccc2c(c1)S(=O)(=O)N(c1ccc(C(F)(F)F)cc1)CCO2 [Compound 2090, N-(1,1-Dioxido-2-(4-(Trifluoromethyl)Phenyl)-3,4-Dihydro-2H-Benzo[b][1,4,5]Oxathiazepin-8-yl)-1-Methyl-1H-Imidazole-2-Carboxamide] | < 20 | 129 to 149 | 
Cc1ccccc1N1CCOc2ccc(NC(=O)c3ncoc3C)cc2S1(=O)=O [Compound 2096, N-(1,1-dioxido-2-(o-tolyl)-3,4-dihydro-2H-benzo[b][1,4,5]oxathiazepin-8-yl)-5-methyloxazole-4-carboxamide] | 30 to 100 | 150 to 200 | 
Cc1ocnc1C(=O)Nc1ccc2c(c1)S(=O)(=O)N(c1ccccc1)CCO2 [Compound 2135, N-(1,1-dioxido-2-phenyl-3,4-dihydro-2H-benzo[b][1,4,5]oxathiazepin-8-yl)-5-methyloxazole-4-carboxamide] | 30 to 100 | 150 to 200 | 
COc1ccc(N2CCOc3ccc(NC(=O)c4ncoc4C)cc3S2(=O)=O)cc1 [Compound 2167, N-(2-(4-methoxyphenyl)-1,1-dioxido-3,4-dihydro-2H-benzo[b][1,4,5]oxathiazepin-8-yl)-5-methyloxazole-4-carboxamide] | 30 to 100 | 150 to 200 | 
Cc1cc(C(=O)Nc2ccc3c(c2)S(=O)(=O)N(c2ccc(C(F)(F)F)cc2)CCO3)ccn1 [Compound 2172] | 20 to 30 | 150 to 200 | 
Cc1cc(C(=O)Nc2ccc3c(c2)S(=O)(=O)N(c2ccc(C(F)(F)F)cc2)CCO3)cc(C)n1 [Compound 2173] | < 20 |  | B (150-200%, inclusive)
Cc1ccc(C(=O)Nc2ccc3c(c2)S(=O)(=O)N(c2ccc(C(F)(F)F)cc2)CCO3)cn1 [Compound 2174] | 20 to 30 | 129 to 149 | 
O=C(Nc1ccc2c(c1)S(=O)(=O)N(c1ccc(C(F)(F)F)cc1)CCO2)c1ccncn1 [Compound 2175] | < 20 | 129 to 149 | 
O=C(Nc1ccc2c(c1)S(=O)(=O)N(c1ccc(C(F)(F)F)cc1)CCO2)c1cnn2c1CCC2 [Compound 2179] | 20 to 30 | 150 to 200 | 
O=C(Nc1ccc2c(c1)S(=O)(=O)N(c1ccc(C(F)(F)F)cc1)CCO2)c1cncs1 [Compound 2180] | 20 to 30 | 150 to 200 | 
Cc1noc(C)c1C(=O)Nc1ccc2c(c1)S(=O)(=O)N(c1ccc(C(F)(F)F)cc1)CCO2 [Compound 2181] | < 20 | 129 to 149 | 
